Measured values from patent publication US9643933B2, “Compounds useful as antibiotic tolerance inhibitors” (priority 2013, dated 2017).

Legend:
PQS [1] = experiment: Assay for PQS Inhibition (6 Hour Incubation); format: cell-based, P. aeruginosa PA14 wild-type strain; conditions: Pseudomonas aeruginosa, PA14, 6 h, read-out: PQS (6 hr) IC50 (μM)
Description: (§1) A concentration range with 7 test concentrations is chosen for each test compound. Typically concentration ranges for the PQS and HHQ assays are from 0.03 to 31.6 μM. Compounds are prepared in solvent, usually DMSO, at either 200 or 500 times the final test concentration.
(§2) P. aeruginosa PA14 wild-type strain is inoculated into 5 ml LB broth in a 15 ml sterile glass culture tube and incubated overnight at 37° C. under shaking (˜240 rpm). After overnight incubation, the bacterial culture is diluted in fresh LB broth to an OD600 nm=0.04, and 5 mL aliquots of the diluted bacterial culture are distributed into 15-mL glass tubes. 10 μL of test compound at 500 times the final test concentration or 25 μL of test compound at 200 times the final test concentration or solvent alone is added to each of the bacterial suspension tubes, and the tubes are incubated at 37° C. under shaking (300 rpm) for 6 hours. At the end of the incubation period, a 0.5 mL aliquot of bacterial suspension is transferred from each 15 mL glass tube, after shaking, to a 2 mL polypropylene vial. 0.5 mL of methanol-containing D4-PQS (deuterated-PQS), D4-HHQ (deuterated-HHQ) and 2% acetic acid are added to each 2 mL vial and each vial is vigorously shaken. The vials are then centrifuged for 5 minutes at 12,000 g, and 200 μL of supernatant from each vial is transferred to a glass vial (vials crimp 0.2 mL), and the sealed vials are kept at 4° C. until LC-MS/MS analysis is performed. HAQs quantification is carried out analyzing samples in discrete batches together with spiked standards and blank samples. Calibration curves are constructed from HAQs standards, and respective deuterated forms are used as Internal Standards (IS), to calculate the concentration of analytes in the sample and improve the precision of the assay. The back-calculated concentrations of the calibration standards from the calibration curve shall be within ±20% of the nominal values, the range of the analytical method is determined, and the lower and upper limit of quantification specified.
(§3) Liquid chromatography separations are performed using Agilent HP1100 system (Agilent Technologies) coupled with a CTC PAL Autosampler (CTC Analytics AG). Chromatographic retention is obtained using a monolithic column (Chromolith® RP-18, 50×4.6 mm). The solvent system consists of water containing 0.1% (v/v) formic acid (A) and acetonitrile containing 0.1% (v/v) formic acid (B). The gradient elution profile is chosen as follows: 0 min: 70% A (1500 μL/min), 0.3 min: 70% A (1500 μL/min), 1.3 min: 5% A (2500 μL/min), 1.6 min: 5% A (2500 μL/min).
(§4) The MS/MS analysis is performed with a API4000 series mass spectrometer (AB Sciex™) operating in Multiple Reaction Monitoring (MRM) mode and equipped with a TIS ion source. The specific ions monitored are PQS (m/z 260→m/z 175), D4-PQS (m/z 264→m/z 179), HHQ (m/z 244→m/z 159) and D4-HHQ (m/z 248→m/z 163). PQS and HHQ in presence of different test compound concentrations are expressed as percentage of inhibition of the basal level in control samples.

Pyocyanin = Pyocyanin Inhibition Assay; format: cell-based, P. aeruginosa, strain PA14; conditions: Pseudomonas aeruginosa, PA14, 24 h, read-out: Pyocyanin Inhibition No. IC50 (μM)
Description: Test compounds are dissolved in DMSO at 10 mM and stored at −20° C. until needed. Seven test concentrations from 0.0032 micromolar to 31.6 micromolar are used for each compound.
P. aeruginosa, strain PA14, is inoculated into 5 mL of LB broth in a 15-mL sterile glass culture tube and incubated overnight at 37° C. under shaking (˜240 rpm). The overnight culture is then diluted in LB Broth to give an OD600=0.04 (T0 culture). Colony Forming Units (CFU)/mL of the overnight culture and T0 culture are determined by a series of 1:10 serial dilutions in sterile saline. 4×20 μL of each dilution is seeded on LB agar plates and incubated at 35±2° C. for 20 hours. CFU/mL is determined from the dilution that gives 2 to 50 colonies/20 μL.
For concentration response curve (CRC) experiments, internal standard, 2-((5-nitro-1H-indol-2-yl)thio)-N-(4-phenoxyphenyl)acetamide, a compound previously identified as an MvfR inhibitor (see Example 1 of US 2014-0066454 (WO 2012/116010)), and test compounds are serially diluted in DMSO to 200 times each final concentration (0.5% DMSO fmal), and 1 μL/well is dispensed in duplicate into 2 mL wells of a 96-well deep well plate. 200 μL/well of T0 culture are added to each internal standard/test compound well. Wells containing only T0 culture (200 200 μL/well) are used to determine pyocyanin control level and wells containing only LB broth (blank wells) are also included in the plate.
The plate is sealed and incubated at 37° C. under shaking (˜700 rpm) using a microtiter shaker for 24 hours. At the end of the incubation period, the plate is centrifuged at 4,000 g for 40 minutes at room temperature, 100 μL/well of the supernatant is transferred to a 96-microtiter PS flat-bottom plate, and absorbance at 690 nm is determined using SPECTROstar® Nano microplate reader. Pyocyanin concentration (M) is determined using the equation C=A690/(ε×d), where ε is the Pyocyanin extinction coefficient, at A690 nm ε is 4,310 M^−1 cm^−1 and d is the experimentally derived pathlength. The level of pyocyanin in the presence of test compound is expressed as percentage of inhibition with respect to the control. Curve fitting and IC50 determination were carried out using a four-parameter logistic model using GraphPad Prism v.5.

HHQ = experiment: Assay for HHQ Inhibition (6 Hour Incubation); format: cell-based, P. aeruginosa PA14 wild-type strain; conditions: Pseudomonas aeruginosa, PA14, 6 h, read-out: HHQ (6 hr) IC50 (μM)
Description: as §1, §2, §3, §4

PQS [2] = experiment: PQS Inhibition Assay (24 Hour Incubation); format: cell-based, P. aeruginosa PA14 wild-type strain; conditions: Pseudomonas aeruginosa, PA14, 24 h, read-out: PQS (24 hr) IC50 (μM)
Description: Test compounds are dissolved in DMSO at 10 mM and stored at −20° C. until needed. Seven test concentrations from 0.0032 micromolar to 31.6 micromolar are used for each compound. P. aeruginosa PA14 wild-type strain is inoculated into 5 mL LB broth in a 15-mL sterile glass culture tube and incubated overnight at 37° C. under shaking (˜240 rpm). The overnight culture is then diluted in LB Broth to give an OD600=0.04 (T0 culture). Colony Forming Units (CFU)/mL of the overnight culture and T0 culture are determined by a series of 1:10 serial dilutions in sterile saline. 4×20 μL of each dilution is seeded on LB agar plates and incubated at 35±2° C. for 20 hours. CFU/mL is determined from the dilution that gives 2 to 50 colonies/20 μL.
For concentration response curve (CRC) experiments, internal standard (2-((5-nitro-1H-indol-2-yl)thio)-N-(4-phenoxyphenyl)acetamide)) and test compounds are serially diluted in DMSO to give 200 times of each final concentration (0.5% DMSO final), and 1 μL/well is dispensed in duplicate into 2-mL wells of a 96 well deep well plate. 200 μL/well of T0 culture is added to each internal standard/test compound well used to determine PQS control level. Wells containing only LB broth (blank wells) are also included in the plate.
The plate is sealed and incubated at 37° C. for 24 hours under shaking (˜700 rpm) using a microtiter shaker. At the end of the incubation period, 150 μL/well of the deep well plate culture are transferred in a new non-sterile plate, and 150 μL/well of methanol containing tetra-deuterated PQS (D4-PQS) and 2% acetic acid are added to each well. The plate is sealed, shaken at high speed for 5 minutes and centrifuged at 4,000 g for 40 minutes at room temperature. 100 μL/well of the supernatant is then transferred to glass vials (vials crimp 0.2 mL) and kept at 4° C. until LC-MS/MS analysis.
PQSs quantification is carried out by analyzing samples in discrete batches together with spiked standards and blank samples.
Calibration curves are constructed from PQS standards, and respective deuterated PQS is used as an Internal Standards (IS) to calculate the concentration of analytes in the sample and improve the precision of the assay. The back-calculated concentrations of the calibration standards from the calibration curve shall be within ±20% of the nominal values, the range of the analytical method is determined, and the lower and upper limit of quantification specified.
as §3, with “performed using an Agilent HP1100” for “performed using Agilent HP1100”
The MS/MS analysis is performed with an API4000 series mass spectrometer (AB Sciex™) operating in Multiple Reaction Monitoring (MRM) mode and equipped with a TIS ion source. The specific ions monitored are PQS (m/z 260→m/z 175) and D4-PQS (m/z 264→m/z 179). The computer systems used in this study to acquire and quantify data may be an Analyst™ v1.5.
PQS in the presence of different concentrations of test compound are expressed as percentage of inhibition of the basal level in control samples. Curve fitting and IC50 estimations are carried out using a four parameter logistic model using GraphPad Prism v.5 program.

| Structure (SMILES) | IC50 (PQS [1]) [µM] | IC50 (Pyocyanin) [µM] | IC50 (HHQ) [µM] | IC50 (PQS [2]) [µM] |
| --- | --- | --- | --- | --- |
| O=C(CNc1nc2ccc(Cl)cc2[nH]1)Nc1ccc(Oc2cccnc2)cc1 [Compound 159, 2-((5-chloro-1H-benzo[d]imidazol-2-yl)amino)-N-(4-(pyridin-3-yloxy)phenyl)acetamide] | < 1 | 0.1 to 1 | < 1 |  |
| Cc1cncc(Oc2ccc(NC(=O)CSc3nc4cc(Cl)ccc4[nH]3)cc2)c1 [Compound 81, 2-(5-Chloro-1H-benzo[d]imidazol-2-ylthio)-N-(4-(5-methylpyridin-3-yloxy)phenyl)acetamide] |  | < 0.1 |  | < 1 |
| N#Cc1ccc(NC(=O)CSc2nc3ccc(-c4ncccn4)cc3[nH]2)cc1 [Compound 113] |  | > 10 |  | > 10 |
| O=C(CNc1nc2ccc(Cl)cc2s1)Nc1ccc(Oc2cccnc2)cc1 [Compound 73, 2-((6-chlorobenzo[d]thiazol-2-yl)amino)-N-(4-(pyridin-3-yloxy)phenyl)acetamide] |  | > 10 |  | > 10 |
| COC(=O)c1ccc2[nH]c(SCC(=O)Nc3ccc(C#N)cc3)nc2c1 [Compound 112] |  | > 10 |  | > 10 |
| COc1ccc(NC(=O)CSc2nc3ccc(Cl)cc3[nH]2)cc1Cl [Compound 143] |  | 1 to 10 |  | 5 to 10 |
